Here are results for eight compounds from DBAASP.

Molecules are shown by their SMILES. Values after ≈ are worked out from the molar mass of the structure shown. Values joined by “and” are separate entries in the source; they are usually repeats but may differ in a detail not shown here. Identical values can stand only once.

Common to all, as to assay: ≥ marks a high value that may be exact or a test limit, other limits are often not marked, values filed in µg/mL are converted to µM
The test system of test [1] is Salmonella typhimurium.
For test [2], the system named is Staphylococcus epidermidis.
Test [3] concerns Pseudomonas aeruginosa.
The subject of test [4] is Staphylococcus aureus.
Test [5] deals with Bacillus subtilis.
Test [6] relates to Proteus mirabilis.
For test [7], the system named is Escherichia coli.
The subject of test [8] is Shigella dysenteriae.
The test system of test [9] is Micrococcus luteus.
Test [10] has as its system Klebsiella pneumoniae.
The test system of test [11] is Bacillus subtilis ATCC 6633.
The subject of test [12] is Candida albicans ATCC 20032.
Test [13] concerns Staphylococcus aureus ATCC 25923.
The test system of test [14] is Escherichia coli ATCC 25922.
The subject of test [15] is Salmonella enterica subsp. enterica serovar Typhimurium ATCC 14028.
The test system of test [16] is Staphylococcus aureus ATCC 29213.
Test [17] concerns Salmonella typhimurium ATCC 7731.
Test [18] relates to Bacillus subtilis CMCC 63501.
Test [19] deals with Pseudomonas aeruginosa ATCC 27853.
The subject of test [20] is Staphylococcus epidermidis ATCC 12228.
The test system of test [21] is Escherichia coli UB1005.
The subject of test [22] is Salmonella enterica subsp. enterica serovar Pullorum C79-13.
The subject of test [23] is Staphylococcus aureus ATCC 43300.

As to `CC(C)C[C@H](NC(=O)[C@H](C)N)C(=O)N[C@@H](Cc1ccccc1)C(=O)N[C@@H](CCCCN)C(=O)N[C@H](C(=O)N[C@@H](C)C(=O)N[C@@H](CO)C(=O)N[C@@H](CCCCN)C(=O)N[C@H](C(=O)N[C@@H](CC(C)C)C(=O)N1CCC[C@H]1C(=O)N[C@@H](CO)C(=O)N[C@H](C(=O)O)C(C)C)C(C)C)C(C)C` [ALFKVASKVLPSV], the MIC in test [1] is at least 147 µM; in test [2], at least 147 µM; in test [3] it was over 147 µM; in [4], over 147 µM; in [5], at least 147 µM; in test [6], at least 147 µM. Also, the MIC is over 147 µM in [7], at least 147 µM in test [8], at least 147 µM in test [9] and over 147 µM in test [10].

With `CC(C)C[C@@H]1NC(=O)[C@H](CO)NC(=O)[C@H](Cc2ccc(O)cc2)NC(=O)[C@H](CCC(=O)O)NC(=O)[C@H](Cc2ccccc2)NC(=O)[C@H](C)NC(=O)[C@H](Cc2ccccc2)NC(=O)[C@@H]2CSSC[C@@H](C(=O)N[C@H](C(=O)N3CCC[C@H]3C(=O)N[C@@H](CC(N)=O)C(=O)N[C@H](C(=O)N[C@@H](Cc3ccccc3)C(=O)O)[C@@H](C)O)C(C)C)NC(=O)[C@@H]3CSSC[C@H](NC(=O)CNC(=O)[C@H](Cc4c[nH]c5ccccc45)NC(=O)[C@@H](NC(=O)[C@H](C)NC(=O)[C@@H](N)Cc4ccccc4)C(C)C)C(=O)N[C@@H](C)C(=O)N[C@@H](CC(=O)O)C(=O)N[C@@H](Cc4ccc(O)cc4)C(=O)N[C@@H](CCCN=C(N)N)C(=O)NCC(=O)N[C@@H](Cc4ccc(O)cc4)C(=O)N[C@@H](CSSC[C@H](NC(=O)CNC(=O)[C@H](CCCCN)NC(=O)[C@@H]4CCCN4C(=O)CNC1=O)C(=O)N[C@@H]([C@@H](C)O)C(=O)N[C@@H](CCC(=O)O)C(=O)NCC(=O)N[C@@H](Cc1ccc(O)cc1)C(=O)N[C@@H](C(C)C)C(=O)N3)C(=O)N[C@@H](CCCN=C(N)N)C(=O)N[C@@H](C)C(=O)N[C@@H](C)C(=O)N2` [FAVWGCADYRGYCRAACFAFEYSLGPKGCTEGYVCCVPNTF], the MIC in test [11] was 29.8 µM (≈ 135 µg/mL); in test [12] it was at least 44.2 µM; in test [13], 14.4 µM (≈ 64.9 µg/mL); in test [14], 35.3 µM (≈ 160 µg/mL).

As for `CC(C)C[C@H](NC(=O)[C@@H](NC(=O)[C@H](CCCCN)NC(=O)[C@H](CC(C)C)NC(=O)[C@H](C)NC(=O)[C@@H](NC(=O)[C@H](CCCCN)NC(=O)[C@H](Cc1ccccc1)NC(=O)[C@H](CC(C)C)NC(=O)[C@H](C)NC(=O)[C@H](CCCCN)NC(=O)[C@H](CC(C)C)NC(=O)[C@@H](N)Cc1ccccc1)C(C)C)C(C)C)C(=O)O` [FLKALFKVALKVL], the MIC in test [1] is at least 134 µM; in test [2] it was 2.08 µM (≈ 3.1 µg/mL); in test [3] it was over 134 µM; in [4] it was 2.08 µM (≈ 3.1 µg/mL); in [5], 16.8 µM (≈ 25 µg/mL); in test [6] it was at least 134 µM. The MIC in test [7] is 33.6 µM (≈ 50 µg/mL); in test [8], at least 33.6 µM; in test [9], 4.23 µM (≈ 6.3 µg/mL); in test [10], 67.1 µM (≈ 100 µg/mL).

For the compound `CC[C@H](C)[C@H](NC(=O)CN)C(=O)NCC(=O)NCC(=O)N[C@@H](C)C(=O)N[C@@H](CC(C)C)C(=O)N[C@@H](CC(C)C)C(=O)N[C@@H](CO)C(=O)N[C@H](C(=O)NCC(=O)N[C@@H](CCCCN)C(=O)N[C@@H](CC(C)C)C(=O)N[C@@H](C)C(=O)N[C@@H](CC(C)C)C(=O)N[C@@H](CCCCN)C(=O)NCC(=O)N[C@@H](CC(C)C)C(=O)N[C@@H](C)C(=O)N[C@@H](CC(N)=O)C(=O)N[C@H](C(=O)N[C@@H](CC(C)C)C(=O)N[C@@H](C)C(=O)N[C@@H](CC(=O)O)C(=O)N[C@@H](CCCCN)C(=O)N[C@@H](Cc1ccccc1)C(=O)N[C@@H](C)C(=O)N[C@@H](CC(N)=O)C(N)=O)C(C)C)C(C)C` [GIGGALLSVGKLALKGLANVLADKFAN], the MIC in test [11] is 14.4 µM (≈ 37.5 µg/mL); in [12] it was 14.4 µM (≈ 37.5 µg/mL); in test [13], 1.8 µM (≈ 4.7 µg/mL); in test [14], over 38.3 µM.

Regarding `CC[C@H](C)[C@H](N)C(=O)N[C@@H](CC(C)C)C(=O)NCC(=O)N1CCC[C@H]1C(=O)N[C@H](C(=O)N[C@H](C(=O)N[C@@H](CO)C(=O)N[C@H](C(=O)N[C@H](C(=O)NCC(=O)N[C@@H](CC(N)=O)C(=O)N[C@H](C(=O)N[C@@H](CC(C)C)C(=O)NCC(=O)NCC(=O)N[C@@H](CC(C)C)C(=O)N[C@@H](CC(C)C)C(=O)N[C@@H](CCCCN)C(=O)N[C@@H](CC(N)=O)C(=O)N[C@@H](CC(C)C)C(N)=O)C(C)C)[C@@H](C)CC)[C@@H](C)O)[C@@H](C)CC)C(C)C` [ILGPVISTIGNVLGGLLKNL], the MIC in test [11] is at least 50.2 µM; in test [12] it was at least 50.2 µM; in test [13] it was over 50.2 µM; in [14], over 50.2 µM.

Turning to `CC[C@H](C)[C@H](N)C(=O)N[C@@H](CO)C(=O)NCC(=O)N1CCC[C@H]1C(=O)N[C@H](C(=O)N[C@@H](CC(C)C)C(=O)NCC(=O)N[C@@H](CC(C)C)C(=O)N[C@H](C(=O)NCC(=O)N[C@@H](CC(N)=O)C(=O)N[C@@H](C)C(=O)N[C@@H](CC(C)C)C(=O)NCC(=O)NCC(=O)N[C@@H](CC(C)C)C(=O)N[C@H](C(=O)N[C@@H](CCCCN)C(=O)N[C@@H](CCCCN)C(=O)N[C@H](C(N)=O)[C@@H](C)CC)[C@@H](C)CC)C(C)C)C(C)C` [ISGPVLGLVGNALGGLIKKI], the MIC in test [11] was at least 52.1 µM; in test [12], at least 52.1 µM; in [13], over 52.1 µM; in [14] it was over 52.1 µM.

Regarding `CC[C@H](C)[C@H](NC(=O)CNC(=O)[C@H](C)NC(=O)[C@H](C)NC(=O)[C@@H](NC(=O)[C@@H](NC(=O)[C@H](CC(N)=O)NC(=O)[C@@H](NC(=O)[C@H](C)NC(=O)[C@@H](NC(=O)[C@@H]1CCCN1C(=O)[C@@H](NC(=O)[C@H](CC(C)C)NC(=O)[C@@H]1CCCN1C(=O)[C@H](Cc1c[nH]c2ccccc12)NC(=O)[C@H](Cc1ccccc1)NC(=O)[C@H](CCCN=C(N)N)NC(=O)[C@@H](N)CCCCN)C(C)C)C(C)C)[C@@H](C)CC)[C@@H](C)O)C(C)C)C(=O)N[C@@H](CC(N)=O)C(=O)N[C@@H](CC(C)C)C(=O)N[C@@H](Cc1ccc(O)cc1)C(=O)N[C@@H](CCCCN)C(=O)N[C@@H](C)C(=O)N[C@H](C(=O)N[C@@H](CCCN=C(N)N)C(=O)N[C@@H](CCCN=C(N)N)C(=O)N[C@@H](CCCCN)C(N)=O)[C@@H](C)CC` [KRFWPLVPVAINTVAAGINLYKAIRRK], the MIC in test [15] is 4 µM (≈ 12.4 µg/mL); in [16], 4 µM (≈ 12.4 µg/mL); in test [17], 4 µM (≈ 12.4 µg/mL); in test [18] it was 2 µM (≈ 6.19 µg/mL); in [19] it was 4 µM and > 2 µM; in test [20], 2 µM (≈ 6.19 µg/mL). Also, the MIC in test [21] was 4 µM (≈ 12.4 µg/mL); in test [14] it was 2 µM and 4 µM.

Turning to `CC(C)C[C@H](NC(=O)[C@H](CCCCN)NC(=O)[C@H](CCCCN)NC(=O)[C@H](C)NC(=O)[C@@H](NC(=O)[C@H](CCCCN)NC(=O)[C@H](CO)NC(=O)[C@H](CC(C)C)NC(=O)[C@@H](N)Cc1c[nH]c2ccccc12)[C@@H](C)O)C(N)=O` [WLSKTAKKL], the MIC was over 128 µM in [16]; at least 128 µM in test [22]; at least 128 µM in test [17]; at least 128 µM in [18]; over 128 µM in test [19]; over 128 µM in test [20]. Also, the MIC in [23] was over 128 µM; in test [21], at least 128 µM; in test [14], over 128 µM.
